# Test results taken from patent US5360803A, “Composition and method for treating cancer” (Dan Farber Cancer Institute, priority 1992, dated 1994).
# Like-named read-outs stand apart in the source and are kept apart here.
# Assays:
# [1] = system: CV-1 cells; assay: selective killing assay, colony number reduced to 50% of control, normal monkey kidney epithelial cell line CV-1; assay type: cell-based; conditions: 24 hours treatment; for IC50: Primates
# Source text: (§1) The control received culture media only.
# [2] = system: CX-1 cells; assay: selective killing assay, colony number reduced to 50% of control, human colon carcinoma cell line CX-1; assay type: cell-based; conditions: for Selectivity (ratio of IC50 for CV-1 and IC50 for CX-1): CV-1/CX-1; for CX-1 (IC50) / IC50: human colon carcinoma, 24 hours treatment, colony count after 7 to 10 days;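 as to all read-outs here: colonies stained with crystal violet and counted, control cells given medium alone, exposure at 37 °C, normal monkey kidney epithelial CV-1 cells as the non-cancer comparator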
# Protocol: (§2) Human colon carcinoma cell line CX-1 or normal monkey kidney epithelial cell line CV-1 was chosen as representatives of cancer cells and normal cells, respectively. […] CX-1 cells (2,000 cells/well) and CV-1 cells (1,000 cells/well) were plated in 24-well plastic culture plates. […] The control received culture media only. Cells were treated with compounds of General Formulas (I) to (V) at 37° C. for 24 hours. After rinsing with fresh culture medium three times, the cells were further incubated at 37° C. for 7 to 10 days. Cell colonies were fixed and stained with 2% crystal violet in 70% ethanol for 10 minutes and rinsed in water. […] The selectivity is defined as the ratio of IC50 for CV-1 and IC50 for CX-1.
# [3] = system: EJ cells; assay: colony assay of Example 1 with human bladder carcinoma EJ cell line; assay type: cell-based; conditions: for Selectivity: CV-1/EJ; for EJ (IC50) / IC50: Table IV, human bladder carcinoma, 24 hours treatment; for IC50: Homo sapiens, EJ, 24 h;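 as to all read-outs here: colony formation assay with 24 h compound exposure at 37 °C, then 7–10 days drug-free regrowth, colonies stained with crystal violet, controls given medium alone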
# Protocol: as §2
# [4] = system: LOX cells; assay: colony assay of Example 1 with human melanoma LOX cell line; assay type: cell-based; conditions: for Selectivity: CV-1/LOX; for LOX(IC50) / IC50: Table V, human melanoma, 24 hours treatment; for IC50: Homo sapiens, LOX, 24 h;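 as to all read-outs here: colony formation assay with 24 h exposure at 37 °C, then 7 to 10 days of regrowth, crystal violet staining of colonies, control wells given medium alone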
# Protocol: as §2
# [5] = system: CRL 1420 cells; assay: colony assay of Example 1 with human pancreatic carcinoma CRL 1420 cell line; assay type: cell-based; conditions: for Selectivity: CV-1/CRL-1420; for CRL-1420(IC50) / IC50: Table VII, human pancreatic carcinoma, 24 hours treatment; for IC50: Homo sapiens, 24 h;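 as to all read-outs here: colony formation assay, cells exposed for 24 h then regrown 7 to 10 days without compound, colonies stained with crystal violet, control given medium alone, normal reference CV-1 monkey kidney epithelial cells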
# Protocol: as §2
# [6] = system: human melanoma LOX; assay: survival of nude mice implanted with human melanoma LOX; assay type: in vivo, male athymic Swiss nu/nu mouse (human tumor)
# Protocol: LOX, a human melanoma cell line, grown subcutaneously in nude mice was excised, trypsinized to yield a single cell suspension using a metal grid with a […] mesh. […] Five million viable trypan blue negative cells made up in 0.1 ml of Dulbecco modified Eagle medium (DMFE) were injected into the peritoneal cavity of a male athymic Swiss nu/nu mouse. The control group and each treatment group consisted of 5 to 10 mice. Treatment was commenced the following day by intraperitoneal injection.
# Ten control mice received 0.25 ml of 2% dextrose on these days the treated groups were injected with the compounds of this invention. […] T/C is the ratio, expressed as a percentage of the mean survival age of the treated group to the mean survival age of the untreated control group.
# [7] = system: MCF-7 cells; assay: colony assay of Example 1 with human breast carcinoma MCF-7 cell line; assay type: cell-based; conditions: for Selectivity: CV-1/MCF-7; for IC50: Homo sapiens, MCF7, 24 h, Table VI, human breast carcinoma, 24 hours treatment
# Source text: as §1
# [8] = Table III, normal monkey kidney epithelial cells, colony count after 7 to 10 days
# [9] = 5 mg/kg i.p. on day 1, 4, 8, 11
# [10] = CV-1, Table III, normal monkey kidney epithelial cells, colony count after 7 to 10 days
Structure (SMILES),Selectivity (ratio of IC50 for CV-1 and IC50 for CX-1) [2],Selectivity [3],Selectivity [4],Selectivity [5],"IC50 [1, 10] [µg/mL]","IC50 ([2]; Homo sapiens, CX-1, Table III) [µg/mL]",IC50 [3] [µg/mL],IC50 [4] [µg/mL],IC50 [5] [µg/mL],"IC50 ([1]; CV-1, 24 h, Table IV) [µg/mL]","IC50 ([1]; CV-1, 24 h, Table V) [µg/mL]","IC50 ([1]; CV-1, 24 h, Table VI) [µg/mL]","IC50 ([1]; CV-1, 24 h, Table VII) [µg/mL]",Selectivity [7],IC50 [7] [µg/mL],other results
CCn1c(=Cc2oc3ccccc3[n+]2C)sc(=C2Sc3ccccc3N2C)c1=O [Compound 15],1000,100,286,500,,,,,,,,,,,,"CV-1 (IC50) [1, 8]: 20 µg/mL; CV-1 (IC50) ([1]; Table IV): 20 µg/mL; CV-1 (IC50) ([1]; Table V): 20 µg/mL; CV-1 (IC50) ([1]; Table VII): 20 µg/mL; CX-1 (IC50) ([2]; Table III): 0.02 µg/mL; EJ (IC50) [3]: 0.2 µg/mL; LOX(IC50) [4]: 0.07 µg/mL; CRL-1420(IC50) [5]: 0.04 µg/mL; T/C [6, 9]: 163%"
CCn1c(=Cc2oc3c4ccccc4ccc3[n+]2CC)sc(=C2Sc3ccc4ccccc4c3N2C)c1=O [Compound 85],750,857,> 600,600,6,0.008,0.007,< 0.01,0.01,,,,,,,"response vs control in vivo at 5 mg/kg ([6]; Mus musculus, ip, 24 h, 5 mg/kg i.p. on day 1, 4, 8, 11, 15, read-out: T/C): 174%"
CCn1c(=Cc2oc3cc4ccccc4cc3[n+]2CC)sc(=C2C=Cc3ccccc3N2C)c1=O [Compound 227],100,160,267,160,8,0.08,0.05,0.03,0.05,8,8,8,8,160,0.05,
CCn1c(=Cc2sc3ccc4ccccc4c3[n+]2CC)sc(=C2SCCN2C)c1=O [Compound 224],250,,200,,20,,,0.1,,,20,20,,200,0.1,"IC50 ([2]; CX-1, Table III): 0.08 µg/mL; response vs control in vivo at 3 mg/kg ([6]; Mus musculus, ip, 24 h, 3 mg/kg i.p. on day 1, 4, 8, 10, 12, read-out: T/C): 161%"
CCn1c(=Cc2oc3ccccc3[n+]2C)sc(=C2Sc3ccccc3N2C)c1=O [Compound 14],667,400,> 300,400,,,,,,,,,,,,"CV-1 (IC50) [1, 8]: 20 µg/mL; CV-1 (IC50) ([1]; Table IV): 20 µg/mL; CV-1 (IC50) ([1]; Table V): > 30 µg/mL; CV-1 (IC50) ([1]; Table VII): 20 µg/mL; CX-1 (IC50) ([2]; Table III): 0.03 µg/mL; EJ (IC50) [3]: 0.05 µg/mL; LOX(IC50) [4]: < 0.1 µg/mL; CRL-1420(IC50) [5]: 0.05 µg/mL; T/C [6, 9]: 147%"
CCn1c(=C2CC[n+]3c2sc2ccccc23)sc(=C2Sc3ccccc3N2C)c1=O [Compound 29],333,200,333,500,10,0.03,0.05,0.03,0.02,10,10,10,10,200,0.05,
CCn1c(=Cc2sc3c4ccccc4ccc3[n+]2CC)sc(=C2Sc3ccccc3N2C)c1=O [Compound 31],333,500,250,,10,0.03,0.02,0.04,,10,10,10,,250,0.04,"response vs control in vivo at 5 mg/kg ([6]; Mus musculus, ip, 24 h, 5 mg/kg i.p. on day 1, 4, 8, 11, read-out: T/C): 153%"
CCn1c(=Cc2oc3c4ccccc4ccc3[n+]2CC)sc(=C2Sc3ccc4ccccc4c3N2C)c1=O [Compound 315],,4000,4000,4000,,,,,,,,20,,400,0.05,EJ (IC50) [3]: 0.005 µg/mL; LOX(IC50) [4]: 0.005 µg/mL; CRL-1420(IC50) [5]: 0.005 µg/mL
CCn1c(=Cc2oc3c4ccccc4ccc3[n+]2CC)sc(=C2Oc3ccc4ccccc4c3N2C)c1=O [Compound 254],120,600,1200,1200,,,0.01,0.005,0.005,6,6,6,6,200,0.03,CX-1 (IC50) ([2]; Table III): 0.05 µg/mL
CCn1c(=Cc2sc3ccc4ccccc4c3[n+]2CC)sc(=C2Oc3ccc4ccccc4c3N2C)c1=O [Compound 116],,,,,,,,,,,,6,,150,0.04,
CCn1c(=CC2=[N+](CC)CCS2)sc(=C2SC3=C(CCCC3)N2C)c1=O [Compound 340],,,,,,,,,,,,20,,200,0.1,"response vs control in vivo at 8 mg/kg ([6]; Mus musculus, ip, 24 h, 8 mg/kg i.p. on day 1, 3, 8, 13, read-out: T/C): 194%"
CCn1c(=Cc2oc3ccc4ccccc4c3[n+]2CC)sc(=C2Oc3c(ccc4ccccc34)N2C)c1=O [Compound 253],120,300,1200,200,6,0.05,0.02,0.005,0.03,6,6,6,6,200,0.03,
CCn1c(=Cc2oc3ccc4ccccc4c3[n+]2CC)sc(=C2Sc3ccccc3N2C)c1=O [Compound 337],100,267,800,,8,0.08,0.03,0.01,,8,8,8,,160,0.05,"response vs control in vivo at 5 mg/kg ([6]; Mus musculus, ip, 24 h, 5 mg/kg i.p. on day 1, 3, 4, 6, 8, 10, 13, read-out: T/C): 137%"
